# In PubChem BioAssay (NCI):
#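 Cells were grown in 96-well plates and exposed to each compound for 48 hours at five concentrations; endpoints were interpolated linearly between bracketing concentrations, or set to the highest concentration if not reached. GI50 = concentration required for 50% inhibition of growth. TGI denotes the concentration required for complete inhibition of growth.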
# Tested on: MDA-MB-468 breast
# Assay: growth of human tumour cells (NCI), 48 h
Structure (SMILES),GI50 [nM],TGI [nM]
O=c1c2ccccc2sc2c(NCCCNCCO)nc3ccccc3c12,1520,3120
CC(C)C[C@H](NC(=O)CNC(=O)c1cc(Cl)ccc1Cl)B(O)O,< 13.7,21.7
CCOC(=O)C1=CCCC[C@H]1S(=O)(=O)Nc1ccc(F)cc1Cl,10800,42400
CCCCCCCCCCCCCCCC1=NCC[N+]1(CCO)CCO,2130,7030
Cc1cc2nc(NCCN)n(Cc3ccc(F)c(Cl)c3)c2cc1C,3610,15800
C[C@@H](Oc1cc(-n2cnc3ccc(OC4CCN(C)CC4)cc32)sc1C(N)=O)c1ccccc1Cl,4.41,202
Clc1c(Cl)[n+](Cc2ccc3ccccc3c2)cn1Cc1ccc2ccccc2c1,668,2280
CCOC(=O)c1c(NC(=O)c2ccc(C(F)(F)F)cc2)sc2c(CN3CCN(C)CC3)c(O)ccc12,1780,3930
COc1cc(/C=C/c2cc(/C=C/c3ccc(O)c(OC)c3)n(C(=O)c3ccc(Cl)cc3)n2)ccc1O,2640,7900
O=c1oc2ccc(I)cc2c(=O)n1-c1ccc(Br)cc1F,1450,4880
COc1ccc(/C=C\c2cc(OC)c(OC)c(OC)c2)cc1OCC(=O)Nc1nc2ccc(F)cc2s1,3680,> 100000
CC(C)(C)C(=O)OCOP(=O)(NCc1ccccc1)C1CCCN(O)C1=O (configuration not stated),1430,5070
OC(CNc1ccnc2cc(Cl)ccc12)CNc1ccnc2cc(Cl)ccc12,1430,2930
Cc1cccc2sc(/N=C(\N)C(Br)Br)nc12,1630,4580
CNC(=O)c1ccc(N2C(=S)N(c3cnc(C#N)c(C(F)(F)F)c3)C(=O)C23CCC3)cc1F,49600,> 100000
Cc1onc(-c2ccccc2)c1C(=O)N/N=C/c1cc(Cl)cc(Cl)c1O,3890,42900
COc1ccc2ncn(-c3cc(O[C@H](C)c4ccccc4C(F)(F)F)c(C(N)=O)s3)c2c1,67,1000
Cc1cc2c(C(=O)NC[C@H](C)c3ccccc3)c(O)c(O)cc2c(O)c1-c1c(C)cc2c(C(=O)NC[C@H](C)c3ccccc3)c(O)c(O)cc2c1O,596,3380
CC[C@H](C)[C@H](NC(=O)[C@H]1CCCCN1C)C(=O)N(C)[C@H](C[C@@H](OC(C)=O)c1cccc(C(=O)N[C@@H](Cc2ccccc2)C[C@H](C)C(=O)OC)n1)C(C)C,0.917,
CC(=O)O[C@@H]1C2CCC3C(CC[C@@]4(C)C3CC[C@@H]4C(C)N(C)C)[C@@]2(C)CC[C@@H]1NC(=O)C=C(C)C (some centres not stated),1400,3060
COc1ccccc1Nc1cc(O)c2c(=O)cc(-c3ccccc3)oc2c1,1500,6420
O=C(CSc1nc2c(n1Nc1ccccc1)-c1ccccc1SC2)Nc1nc(-c2ccc(Cl)cc2)cs1,18000,> 100000

Structure (SMILES),GI50 [nM],TGI [nM]
O=C1NC(=C(Cl)Cl)/C(=N/S(=O)(=O)N2CCCCC2)N1,2390,13300
COc1cc(C(=O)NC2CCc3cc(OC)c(OC)c(OC)c3-c3ccc(OC)c(=O)cc32)cc(OC)c1OC (configuration not stated),85.3,> 100000
Cc1c(C)n(CCCN2CCN(C)CC2)c2ccc(Oc3cccc(C(=O)N4CCN(CCc5ccc(F)cc5)CC4)c3)cc12,1160,2470
COc1cc2c(c(OC)c1OC)-c1ccc(OC)c(=O)cc1C(NC(=O)COc1ccccc1)CC2 (configuration not stated),< 10,59400
O=C1N[C@@H]2[C@@H](O)[C@@H](O)[C@H](O)C[C@H]2c2cc3c(c(O)c21)OCCO3,95.5,455
Cc1ccc(O)c(NC(=O)c2cccc(Nc3ccnc(C(F)(F)F)c3)c2)c1,3190,54900
NS(=O)(=O)OC[C@H]1C[C@@H](Nc2ccnc3cc(-c4cccc(SC(F)(F)F)c4)nn23)[C@H](O)[C@@H]1O,< 10,< 12.7
CCOC(=O)c1cc(C(=O)c2ccc(OC)cc2)n2ccc(/C=C/c3cc[n+](CC(=O)c4ccc(OC)cc4)cc3)cc12,1710,3630
O=C1Nc2c(ccc(Cl)c2Cl)/C1=C/c1cc(Br)c(O)c(Br)c1,2960,> 26300
Oc1c(Cl)cc(Cl)c(Cl)c1CNCCNCc1c(O)c(Cl)cc(Cl)c1Cl,917,5850
COc1ccc(Cn2cc3c(c2-c2cc(OC)c(OC)c(OC)c2)CCCc2cnoc2-3)cc1,563,> 100000
CN[C@H]1CN(c2ccc3c(=O)c(C(=O)O)cn(-c4nccs4)c3n2)C[C@@H]1OC,822,2860
COc1ccc(C(=O)C(CN(C)C)CN(C)C)cc1,1470,4310
COc1ccc(C2(Cl)c3ccccc3N(c3ccccc3)c3ccccc32)cc1,391,2100
O=C(N/N=C/c1ccc([N+](=O)[O-])o1)c1[nH]c2ccc(Br)cc2c1-c1ccccc1,304,1700
COc1cc2c(cc1OC(C)C)[C@H](c1ccc(Cl)cc1)N(c1ccc(N(C)CC3CCC(N4CCN(C)C(=O)C4)CC3)cc1)C(=O)C2 (some centres not stated),3370,8930
Fc1ccc(-c2c(-c3ccncc3)nc3n2CCS3)cc1,> 10400,> 25000
Fc1ccc(-c2cc3nc(C(Cl)Cl)nc(-c4ccco4)n3n2)cc1,242,793
CCc1ccc(Oc2c(-c3ccc(OCc4ccc(Cl)cc4)cc3O)n[nH]c2C(F)(F)F)cc1,1730,3960
C=CN(C(=O)N1CCN(c2cc3c(cc2F)c(=O)c(C(=O)O)cn3C2CC2)CC1)c1nc(-c2ccc(OC)cc2)cs1,3070,28000
C=C(c1ccc(OC)c(/C=C/C(=O)c2ccc3c(c2)OCO3)c1)c1cc(OC)c(OC)c(OC)c1,1650,8920
CNC(=O)c1c(C)oc2cc(Oc3ncnc4cc(OC)c(OC)cc34)ccc12,> 100000,> 100000
